Experiments:
Format in all cases: cell-based
K. pneumoniae 667 = experiment: Bacterial growth curves; conditions: β,β-Dim 4 µg/mL, colistin 0.5 µg/mL, alone or combined; 24 h
Protocol: Overnight cultures of K. pneumoniae 667 and E. coli 13f4 were diluted to 10^6 CFU/mL; then, β,β-Dim (4 μg/mL), colistin (0.5 or 2 μg/mL), and their combination were co-incubated with bacterial suspensions in a 96-well plate. OD600 values were monitored hourly over a 24 h period.

K. pneumoniae 109(mcr-8) = experiment: Checkerboard assay (MIC, FICI)
Protocol: (§1) The FICI of β,β-Dim–colistin combination was determined by a checkerboard assay. Briefly, two-fold serial dilutions of β,β-Dim and colistin were prepared in a 96-well plate. After incubation at 37 °C for 18 h with bacterial suspension (10^6 CFU/mL), OD600 values were measured. FICI = (MICβ,β-Dim in combination/MICβ,β-Dim) + (MICcolistin in combination/MICcolistin). The synergistic effect of β,β-Dim with other antibiotics was measured in the same way. Synergy was considered to be an FICI ≤ 0.5.

[1] = system: K. pneumoniae 197(mcr-1、blaNDM); experiment: Checkerboard assay (MIC, FICI)
Protocol: as §1

[2] = system: K. pneumoniae 29(mcr-8、pmrB、blaNDM); experiment: Checkerboard assay (MIC, FICI)
Protocol: as §1

P. aeruginosa PAO1 = experiment: Checkerboard assay (MIC, FICI)
Protocol: as §1

[3] = system: S. Typhimurium 9891(mcr-1); experiment: Checkerboard assay (MIC, FICI)
Protocol: as §1

K. pneumoniae 20(mcr-1) = experiment: Checkerboard assay (MIC, FICI)
Protocol: as §1

[4] = system: E. coli BW25113-184-mcr-1; experiment: Checkerboard assay (MIC, FICI)
Protocol: as §1

K. pneumoniae ATCC 13883 = experiment: Checkerboard assay (MIC, FICI)
Protocol: as §1

E. coli ATCC 25922 = experiment: Checkerboard assay (MIC, FICI)
Protocol: as §1

E. coli BW25113-184 = experiment: Checkerboard assay (MIC, FICI)
Protocol: as §1

K. pneumoniae 126(mcr-8) = experiment: Checkerboard assay (MIC, FICI)
Protocol: as §1

A. baumannii ATCC 19606 = experiment: Checkerboard assay (MIC, FICI)
Protocol: as §1

[5] = system: K. pneumoniae 251(mgrB、phoP、pmrA、blaKPC); experiment: Checkerboard assay (MIC, FICI)
Protocol: as §1

E. coli ZJ71(mcr-1) = experiment: Checkerboard assay (MIC, FICI)
Protocol: as §1

[6] = system: K. pneumoniae 650(mgrB、phoP、pmrA、blaKPC); experiment: Checkerboard assay (MIC, FICI)
Protocol: as §1

[7] = system: K. pneumoniae 492(mcr-1、blaNDM); experiment: Checkerboard assay (MIC, FICI)
Protocol: as §1

[8] = system: K. pneumoniae 57(mcr-9、blaNDM); experiment: Checkerboard assay (MIC, FICI)
Protocol: as §1

[9] = system: E. coli BW25113-pmrBR93P(pmrB); experiment: Checkerboard assay (MIC, FICI)
Protocol: as §1

E. coli 13f4(mcr-1) = experiment: Checkerboard assay (MIC, FICI)
Protocol: as §1

E. coli pHSG299-mcr-3 = experiment: Checkerboard assay (MIC, FICI)
Protocol: as §1

[10] = system: E. coli BW25113-pmrAD82N(pmrA); experiment: Checkerboard assay (MIC, FICI)
Protocol: as §1

[11] = system: S. Typhimurium ATCC 14028; experiment: Checkerboard assay (MIC, FICI)
Protocol: as §1

[12] = system: K. pneumoniae 667(phoP、pmrA、blaKPC); experiment: Checkerboard assay (MIC, FICI)
Protocol: as §1

P. aeruginosa 9(mcr-1) = experiment: Checkerboard assay (MIC, FICI)
Protocol: as §1

[13] = system: K. pneumoniae, E. coli, Salmonella, P. aeruginosa, and A. baumannii; experiment: Checkerboard assay, panel of tested strains (summary statements)
Protocol: as §1

[14] = Klebsiella pneumoniae, read-out: MIC of β,β-Dim
[15] = Escherichia coli, BW25113, read-out: MIC of β,β-Dim
[16] = Escherichia coli, read-out: MIC of β,β-Dim

Structure (SMILES): CC(C)=CC[C@H](OC(=O)C=C(C)C)C1=CC(=O)c2c(O)ccc(O)c2C1=O [β,β-Dim, β,β-dimethylacrylalkannin]
- bacterial growth (growth curves) (K. pneumoniae 667): neither β,β-Dim (4 µg/mL) nor colistin (0.5 µg/mL) alone inhibited the growth
- MIC of β,β-Dim [Combination] (K. pneumoniae 109(mcr-8); 109, with colistin): 4 mg/L
- MIC (K. pneumoniae 109(mcr-8); [14]): > 128 mg/L
- MIC of β,β-Dim [Combination] ([1]; 197, with colistin): 8 mg/L
- MIC [1, 14]: > 128 mg/L
- MIC of β,β-Dim [Combination] ([2]; 29, with colistin): 4 mg/L
- MIC [2, 14]: > 128 mg/L
- MIC of β,β-Dim [Combination] (P. aeruginosa PAO1; PAO1, with colistin): 2 mg/L
- MIC (P. aeruginosa PAO1; Pseudomonas aeruginosa, PAO1, read-out: MIC of β,β-Dim): > 128 mg/L
- MIC of β,β-Dim [Combination] ([3]; 9891, with colistin): 8 mg/L
- MIC ([3]; Salmonella enterica, TYPHIMURIUM, read-out: MIC of β,β-Dim): > 128 mg/L
- MIC of β,β-Dim [Combination] (K. pneumoniae 20(mcr-1); 20(mcr-1), with colistin): 4 mg/L
- MIC (K. pneumoniae 20(mcr-1); [14]): > 128 mg/L
- MIC of β,β-Dim [Combination] ([4]; BW25113-184-mcr-1, with colistin): 4 mg/L
- MIC [4, 15]: > 128 mg/L
- MIC of β,β-Dim [Combination] (K. pneumoniae ATCC 13883; 13883, with colistin): 2 mg/L
- MIC (K. pneumoniae ATCC 13883; Klebsiella pneumoniae, ATCC13883, read-out: MIC of β,β-Dim): > 128 mg/L
- MIC of β,β-Dim [Combination] (E. coli ATCC 25922; 25922, with colistin): 2 mg/L
- MIC (E. coli ATCC 25922; Escherichia coli, ATCC25922, read-out: MIC of β,β-Dim): > 128 mg/L
- MIC of β,β-Dim [Combination] (E. coli BW25113-184; BW25113-184, with colistin): 2 mg/L
- MIC (E. coli BW25113-184; [15]): > 128 mg/L
- MIC of β,β-Dim [Combination] (K. pneumoniae 126(mcr-8); 126, with colistin): 8 mg/L
- MIC (K. pneumoniae 126(mcr-8); [14]): > 128 mg/L
- MIC of β,β-Dim [Combination] (A. baumannii ATCC 19606; 19606, with colistin): 4 mg/L
- MIC (A. baumannii ATCC 19606; Acinetobacter baumannii, ATCC19606, read-out: MIC of β,β-Dim): > 128 mg/L
- MIC of β,β-Dim [Combination] ([5]; 251, with colistin): 4 mg/L
- MIC [5, 14]: > 128 mg/L
- MIC (E. coli ZJ71(mcr-1); [16]): > 128 mg/L
- MIC of β,β-Dim [Combination] (E. coli ZJ71(mcr-1); ZJ71, with colistin): 4 mg/L
- MIC of β,β-Dim [Combination] ([6]; 650, with colistin): 8 mg/L
- MIC [6, 14]: > 128 mg/L
- MIC of β,β-Dim [Combination] ([7]; 492, with colistin): 2 mg/L
- MIC [7, 14]: > 128 mg/L
- MIC of β,β-Dim [Combination] ([8]; 57, with colistin): 8 mg/L
- MIC [8, 14]: > 128 mg/L
- MIC of β,β-Dim [Combination] ([9]; BW25113-pmrBR93P, with colistin): 8 mg/L
- MIC [9, 15]: > 128 mg/L
- MIC of β,β-Dim [Combination] (E. coli 13f4(mcr-1); 13f4, with colistin): 4 mg/L
- MIC (E. coli 13f4(mcr-1); [16]): > 128 mg/L
- MIC (E. coli pHSG299-mcr-3; Escherichia coli, PHSG299MCR3, read-out: MIC of β,β-Dim): > 128 mg/L
- MIC of β,β-Dim [Combination] (E. coli pHSG299-mcr-3; pHSG299-mcr-3, with colistin): 8 mg/L
- MIC of β,β-Dim [Combination] ([10]; BW25113-pmrAD82N, with colistin): 8 mg/L
- MIC [10, 15]: > 128 mg/L
- MIC of β,β-Dim [Combination] ([11]; 14028, with colistin): 0.5 mg/L
- MIC ([11]; Salmonella enterica, read-out: MIC of β,β-Dim): > 128 mg/L
- MIC of β,β-Dim [Combination] ([12]; 667, with colistin): 2 mg/L
- MIC [12, 14]: > 128 mg/L
- MIC of β,β-Dim [Combination] (P. aeruginosa 9(mcr-1); P. aeruginosa 9, with colistin): 16 mg/L
- MIC (P. aeruginosa 9(mcr-1); Pseudomonas aeruginosa, read-out: MIC of β,β-Dim): > 128 mg/L
- antibacterial activity against Gram-negative bacteria ([13]; β,β-Dim alone): did not exhibit antibacterial activity
- FICI ([13]; β,β-Dim with colistin, summary over tested strains): < 0.5

Reference: paper PMC12837263, “β,β-Dimethylacrylalkannin Restores Colistin Efficacy Against mcr- and TCS-Mediated Resistant Gram-Negative Bacteria via Membrane Disturbance” (Antibiotics, 2025)
